Where “and” joins values, the source holds several entries; their conditions need not be identical. Identical values can stand only once. Entries after “also recorded” stand apart in the source; their conditions may differ.
System: collagen-induced arthritis
Assay: Collagen-induced arthritis (CIA) model in rats: body weight, paw volume, clinical scores, clinical observations; on Average detailed clinical score, left hind limb: key of the grades not given here; on Average detailed clinical score, right hind limb: key of the grades not given here; on Mean overall clinical score ± SD: key of the grades not given here; on overall clinical score: key of the grades not given here
Conditions: for Mean animal paw volume ± SD: group mean; for Average detailed clinical score, left forelimb / Average detailed clinical score, left hind limb / Average detailed clinical score, right forelimb / Average detailed clinical score, right hind limb / Average detailed clinical score, score / Mean overall clinical score ± SD / Overall clinical score: Day 0; for Overall clinical score: individual animals #1-8

## CNC(=O)c1[nH]c(C(=O)NC2CCC2)cc1O[C@@H](C)c1ccccc1 (stereo in doubt) [Example 101, N^5-cyclobutyl-N^2-methyl-3-(1-phenylethoxy)-1H-pyrrole-2,5-dicarboxamide]
CIA rats, 30 mg/kg, Day 0, left paw, individual animals
  Animal paw volume Day 0 L: 1.33 mL (2×) and 1.32 mL (3×) and 1.31 mL and 1.30 mL and 1.34 mL
CIA rats, 30 mg/kg, Day 0, right hind paw (R)
  Average animal paw volume percent change: 0.00%
CIA rats, 30 mg/kg, Day 0, right paw, individual animals
  Animal paw volume Day 0 R: 1.34 mL (2×) and 1.31 mL (2×) and 1.33 mL and 1.30 mL and 1.32 mL (2×)
CIA rats, 30 mg/kg, Day 6, left hind paw (L)
  Average animal paw volume percent change: 0.76%
CIA rats, 30 mg/kg, Day 6, left paw, individual animals
  Animal paw volume Day 6 L: 1.35 mL and 1.33 mL (3×) and 1.32 mL (3×) and 1.34 mL
CIA rats, 30 mg/kg, Day 6, right hind paw (R)
  Average animal paw volume percent change: 0.75%
CIA rats, 30 mg/kg, Day 6, right paw, individual animals
  Animal paw volume Day 6 R: 1.36 mL and 1.32 mL (2×) and 1.31 mL and 1.34 mL (2×) and 1.33 mL (2×)
CIA rats, 30 mg/kg, Day 12, left hind paw (L)
  Average animal paw volume percent change: 1.33%
CIA rats, 30 mg/kg, Day 12, left paw, individual animals
  Animal paw volume Day 12 L: 1.36 mL (2×) and 1.34 mL (2×) and 1.31 mL and 1.33 mL and 1.32 mL and 1.35 mL
CIA rats, 30 mg/kg, Day 12, right hind paw (R)
  Average animal paw volume percent change: 2.87%
CIA rats, 30 mg/kg, Day 12, right paw, individual animals
  Animal paw volume Day 12 R: 1.50 mL and 1.36 mL and 1.33 mL (4×) and 1.34 mL and 1.35 mL
CIA rats, 30 mg/kg, Day 13, left hind paw (L)
  Average animal paw volume percent change: 2.76%
CIA rats, 30 mg/kg, Day 13, left paw, individual animals
  Animal paw volume Day 13 L: 1.40 mL and 1.36 mL (2×) and 1.33 mL and 1.34 mL (2×) and 1.38 mL and 1.35 mL
CIA rats, 30 mg/kg, Day 13, right hind paw (R)
  Average animal paw volume percent change: 4.15%
CIA rats, 30 mg/kg, Day 13, right paw, individual animals
  Animal paw volume Day 13 R: 1.54 mL and 1.38 mL and 1.34 mL (2×) and 1.36 mL (3×) and 1.33 mL
CIA rats, 30 mg/kg, Day 14, left hind paw (L)
  Average animal paw volume percent change: 2.39%
CIA rats, 30 mg/kg, Day 14, left paw, individual animals
  Animal paw volume Day 14 L: 1.40 mL and 1.35 mL (2×) and 1.32 mL and 1.37 mL (2×) and 1.36 mL and 1.30 mL
CIA rats, 30 mg/kg, Day 14, right hind paw (R)
  Average animal paw volume percent change: 3.83%
CIA rats, 30 mg/kg, Day 14, right paw, individual animals
  Animal paw volume Day 14 R: 1.53 mL and 1.37 mL and 1.35 mL (2×) and 1.36 mL (3×) and 1.28 mL
CIA rats, 30 mg/kg, Day 15, left hind paw (L)
  Average animal paw volume percent change: 10.45%
CIA rats, 30 mg/kg, Day 15, left paw, individual animals
  Animal paw volume Day 15 L: 1.46 mL and 1.79 mL and 1.57 mL and 1.38 mL (2×) and 1.34 mL and 1.44 mL and 1.31 mL
CIA rats, 30 mg/kg, Day 15, right hind paw (R)
  Average animal paw volume percent change: 12.13%
CIA rats, 30 mg/kg, Day 15, right paw, individual animals
  Animal paw volume Day 15 R: 1.52 mL and 1.37 mL and 1.68 mL and 1.38 mL and 1.49 mL and 1.36 mL and 1.73 mL and 1.30 mL
CIA rats, 30 mg/kg, Day 18, left hind paw (L)
  Average animal paw volume percent change: 29.38%
CIA rats, 30 mg/kg, Day 18, left paw, individual animals
  Animal paw volume Day 18 L: 1.46 mL and 2.05 mL and 1.90 mL and 1.47 mL (2×) and 1.68 mL and 1.93 mL and 1.70 mL
CIA rats, 30 mg/kg, Day 18, right hind paw (R)
  Average animal paw volume percent change: 23.54%
CIA rats, 30 mg/kg, Day 18, right paw, individual animals
  Animal paw volume Day 18 R: 1.51 mL and 1.87 mL and 1.86 mL and 1.37 mL and 1.48 mL and 1.32 mL and 1.95 mL and 1.68 mL
CIA rats, 30 mg/kg, Day 19, left hind paw (L)
  Average animal paw volume percent change: 33.52%
CIA rats, 30 mg/kg, Day 19, left paw, individual animals
  Animal paw volume Day 19 L: 1.42 mL and 2.04 mL and 2.06 mL and 1.56 mL and 1.55 mL and 1.85 mL and 1.94 mL and 1.67 mL
CIA rats, 30 mg/kg, Day 19, right hind paw (R)
  Average animal paw volume percent change: 32.36%
CIA rats, 30 mg/kg, Day 19, right paw, individual animals
  Animal paw volume Day 19 R: 1.44 mL and 1.96 mL and 2.14 mL and 1.39 mL and 1.48 mL and 1.83 mL and 2.04 mL and 1.69 mL
CIA rats, 30 mg/kg, Day 21, left hind paw (L)
  Average animal paw volume percent change: 37.92%
CIA rats, 30 mg/kg, Day 21, left paw, individual animals
  Animal paw volume Day 21 L: 1.43 mL and 2.08 mL and 2.11 mL and 1.54 mL (2×) and 2.06 mL and 2.13 mL and 1.67 mL
CIA rats, 30 mg/kg, Day 21, right hind paw (R)
  Average animal paw volume percent change: 36.08%
CIA rats, 30 mg/kg, Day 21, right paw, individual animals
  Animal paw volume Day 21 R: 1.43 mL and 2.10 mL and 2.16 mL and 1.40 mL and 1.47 mL and 2.00 mL and 2.12 mL and 1.67 mL
CIA rats, 3, 10 and 30 mg/kg twice daily P.O. (groups 5-7)
  overall effect on joint inflammation and clinical symptoms of CIA: ameliorated joint inflammation in a dose-dependent manner; also recorded: lower clinical scores; also recorded: dose-dependent effect in the amelioration of clinical symptoms associated with CIA; also recorded: function in a dose-dependent manner to limit and/or reduce the severity of CIA-related symptoms
Day 0, L paw, 3 mg/kg
  Mean animal paw volume ± SD: 1.33 mL
Day 0, L paw, 10 mg/kg
  Mean animal paw volume ± SD: 1.31 mL
Day 0, L paw, 30 mg/kg
  Mean animal paw volume ± SD: 1.32 mL
Day 0, R paw, 3 mg/kg
  Mean animal paw volume ± SD: 1.33 mL
Day 0, R paw, 10 mg/kg
  Mean animal paw volume ± SD: 1.31 mL
Day 0, R paw, 30 mg/kg
  Mean animal paw volume ± SD: 1.32 mL
CIA rats, 3 mg/kg
  Average detailed clinical score, left forelimb: 0.00
  Average detailed clinical score, left hind limb: 0.00
  Average detailed clinical score, right forelimb: 0.00
  Average detailed clinical score, right hind limb: 0.00
  Average detailed clinical score, score: 0.00
  Mean overall clinical score ± SD: 0 ± 0
  Overall clinical score: 0
CIA rats, 10 mg/kg
  Average detailed clinical score, left forelimb: 0.00
  Average detailed clinical score, left hind limb: 0.00
  Average detailed clinical score, right forelimb: 0.00
  Average detailed clinical score, right hind limb: 0.00
  Average detailed clinical score, score: 0.00
  Mean overall clinical score ± SD: 0 ± 0
  Overall clinical score: 0
CIA rats, 30 mg/kg
  Average detailed clinical score, left forelimb: 0.00
  Average detailed clinical score, left hind limb: 0.00
  Average detailed clinical score, right forelimb: 0.00

Source: patent publication US20250263370A1 (Tay Therapeutics Limited, priority 2022, published 2025)
